{"source": "patent US11465989B2", "about": "“Guanidine compounds and use thereof” (IMMUNOMET THERAPEUTICS INC., priority 2014, dated 2022)", "key": {"SK-MEL-239 tumor cells [1]": {"test_system": "SK-MEL-239 tumor cells", "assay": "In vivo xenograft model using SK-MEL-239 cell", "set-up": "species or system mice", "details": "Dosing 150/100 mg/kg, oral, twice daily"}, "SK-MEL-239 tumor cells [2]": {"test_system": "SK-MEL-239 tumor cells", "assay": "In vivo xenograft model using SK-MEL-239 cell", "set-up": "species or system mice", "experimental": "The compounds of the present invention were evaluated in vivo using xenograft human cancer model in mice. The compounds of invention were administrated orally or interperitoneal injection. Tumor cell lines were cultured in vitro as monolayer culture. Using female BALB/c nude mice with immune system compromised, each mouse was inoculated subcutaneously at the right flank with tumor cells for tumor development. The treatment was started when the tumor size reaches approximately 100 mm^3\nThe SK-MEL-239 tumor cell line was maintained in vitro as monolayer in RPMII 640 medium supplemented with 10% heat inactivated fetal bovine serum, 100 U/ml penicillin and 100 μg/ml streptomycin, and L-glutamine (2 mM) at 37° C. in an atmosphere of 5% CO2 in air. The tumor cells were routinely subcultured twice weekly with 0.5% trypsin-EDTA treatment. The cells growing in an exponential growth phase were harvested and counted for tumor cell inoculation.\nFemale BALB/c nude mice aged 6-8 weeks and weighing approximately 18-22 g were purchased from Vital River. Each mouse was inoculated subcutaneously at the right flank with SK-MEL-239 tumor cells (1×10^7) in 0.1 ml of PBS for tumor development. The treatment was started, when the tumor size reaches approximately 100 mm^3. 100 mg/kg of Phenformin and 15 mg/kg of Vemurafenib were administered via oral gavage twice daily and 100 mg/kg HLPOI (HL176001001) was administered once daily for 21 days. Tumor volumes were measured twice a week in two dimensions using a caliper, and the volume was expressed in mm^3 using the formula: V=0.5×a×b^2, where a and b were the long and short diameters of the tumor, respectively. The T/C value (in percentage) was an indication of antitumor effect. T and C were the mean volumes of the treated and control groups, respectively."}, "A549 cells": {"test_system": "A549 cells", "assay": "In vitro combination study with Dasatinib on A549 cell", "format": "cell-based", "details": "0.05 μM of Dasatinib and 8 μM of Phenformin", "experimental": "(§1) A549, H1975 (CRL5908, ATCC) or U937 cell (CRL1593.2™, ATCC) lines were cultured in RPMI 1640 media (Lifetechnologies, CA) with supplement of 10% FBS and antibiotic-antimycotic (Lifetechnologies, CA). Dasatinib (Combi-Blocks, San Diego, Calif.) is Bcr-Abl-tyrosine kinase inhibitor and Src family tyrosine kinase inhibitor approved for CML treatment. GDC094 (Selleckchem, Houston, Tex.) is a pan-PI3K inhibitor and effective in various cancer cells. H1975 or A549 cells were dissociated from culture plate using 0.5% trypsin-EDTA (Lifetechnologies, CA) and were suspended. U937 cells were spun down using centrifugation. […]\n(§2) Among four concentrations of the compounds of present invention, the highest concentration was set to IC80 and the lowest concentration was approximately IC30. […] 100 μl of DMSO was added after removing MTT solution from each well, and were read by VICTOR X3 Multilabel Counter at the wavelength of 550 nm.\n(§3) For the analysis of U937 cell viability, 20 μl of Celltiter96® AQueous one solution (MTS, Promega, Madison, Wis.) were added to each well, and plates were incubated at 37° C. and 5% CO2. After 2 hours later, plates read by VICTOR X3 Multilabel Counter at the wavelength of 490 nm. The combination index (CI value) was calculated using Calcusyn (Biosoft, UK)."}, "H1975 cell": {"test_system": "H1975 cell", "assay": "In vitro combination study with Dasatinib on H1975 cell", "format": "cell-based", "details": "0.2 μM of Dasatinib, 8 μM or 40 μM of Example 1, 40 μM or 200 μM of Example 104", "experimental": "as §1, §2, §3"}, "[3]": {"details": "Dosing 15 mg/kg, oral, twice daily, Day 28"}}}
{"smiles": "[H]/N=C(/N)N/C(=N/[H])NCCc1ccccc1", "note": "[Phenformin, phenformin, reference compound]", "values": [{"measurement": "T/C (Day 28, %)", "setting": "SK-MEL-239 tumor cells [1]", "value": 52.2, "unit": "%"}, {"measurement": "Tumor Volume (Day 28, mm^3, a)", "setting": "SK-MEL-239 tumor cells [1]", "value": "1,562 ± 166 mm^3"}, {"measurement": "tumor volume compared to the control group", "setting": "SK-MEL-239 tumor cells [2]; 100 mg/kg, Phenformin twice daily, Example 1 once daily", "value": "significant reduction of tumor volume"}, {"measurement": "tumor volume compared to the single administration of Vemurafenib", "setting": "SK-MEL-239 tumor cells [2]; in combination with 15 mg/kg of Vemurafenib", "value": "did not show the significant reduction of tumor volume"}, {"measurement": "synergic effect in combination with Dasatinib", "setting": "A549 cells", "value": "did not show the synergic effect"}]}
{"smiles": "Cl.N=C(N)NC(=N)NCCc1ccc(F)cc1", "note": "[Example 104, N-1-(4-fluoro)phenethylbiguanide hydrochloride]", "values": [{"measurement": "combination therapy effect with Dasatinib", "setting": "H1975 cell", "value": "low combination therapy effect"}]}
{"smiles": "CCCS(=O)(=O)Nc1ccc(F)c(C(=O)c2c[nH]c3ncc(-c4ccc(Cl)cc4)cc23)c1F", "note": "[Vemurafenib, reference compound]", "values": [{"measurement": "T/C (Day 28, %)", "setting": "SK-MEL-239 tumor cells [2]; [3]", "value": 38.0, "unit": "%"}, {"measurement": "Tumor Volume (Day 28, mm^3, a)", "setting": "SK-MEL-239 tumor cells [2]; [3]", "value": "1,144 ± 101 mm^3"}]}
